Test results reported in patent publication US20200138031A1, “MIXTURES OF SABADILLA ALKALOIDS AND N-OCTYL BICYCLOHEPTENE DICARBOXIMIDE AND USES THEREOF” (priority 2016, published 2020).

Key:
Assay type in all cases: in vivo
[1] = system: Yellow fever mosquito (Aedes aegypti); assay: whole plant or invertebrate; details: for % Mortality: Hour 4; for mortality at 0.05 % strength / mortality at 0.5 % strength / mortality at 1 % strength / mortality: Aedes aegypti; for mortality at 1 % strength: 1.0 % w/w
Protocol: (§1) A direct spray bioassay for a mixture of sabadilla and N-octyl bycloheptene dicarboximide (MGK264) against Yellow fever mosquito (Aedes aegypti) was conducted on Sep. 20-27, 2019. A water-based formulation containing Sabadilla alone, MGK264 alone, or these combinations were prepared using test products and distilled water. Ten adults (females) of the mosquito were put into 650 mL clean cup (100 mm diameter×70 mm height) laid a filter paper (106 mm diameter) at the bottom, and the cup was covered with 1 mm mesh nylon net. The cup was set on the bottom of CSMA chamber (460 mm×460 mm×700 mm height), and 0.5 mL of water (control) or water-based formulation of test products was sprayed from the distance of 30 cm toward the cup at the air pressure of 0.039 MPa (0.4 kg/cm2). […] The test was repeated 4 times and calculated mortality (%) at each observation point.
(§2) To determine if the mixtures provided unexpected results, the observed combined efficacy (“OCE”) was divided by the expected combined efficacy (“ECE”) to give an OCE/ECE ratio wherein the expected ECE is calculated by the Abbott method: […]
(§3) wherein ECE is the expected combined efficacy and in which A and B are the efficacy provided by the single active ingredients. If the ratio between the OCE of the mixture and the ECE of the mixture is greater than 1, then greater than expected interactions are present in the mixture. (Gisi, The American Phytopathological Society, 86:11, 1273-1279, 1996).

[2] = system: German cockroach (Blattella germanica); assay: direct spray bioassay against German cockroach; details: for % Mortality: Hour 4; for mortality at 0.05 % strength / mortality at 0.5 % strength / mortality at 5 % strength: Blattella germanica
Protocol: as §2, §3
(§4) A direct spray bioassay for a mixture of sabadilla and MGK264 against German cockroach (Blattella germanica) was conducted on Feb. 13-20, 2019. A water-based formulation containing Sabadilla alone, MGK264 alone, or these combinations were prepared using test products and distilled water. Ten adults (1:1 sex ratio) of the cockroach were put into 200 mL clean cup (80 mm diameter×45 mm height) laid a filter paper (82 mm diameter) at the bottom. The cup was set on the bottom of CSMA chamber (460 mm×460 mm×700 mm height), and 1.5 mL of water (control) or water-based formulation of test products was sprayed from the distance of 60 cm toward the cup at the air pressure of 0.041 MPa (0.42 kg/cm2). […] The test was repeated 4 times and calculated mortality (%) at each observation point.

[3] = system: bed bug (Cimex lectularius); assay: direct spray bioassay against bed bug; details: for % Mortality: Hour 4; for mortality at 0.05 % strength / mortality at 0.5 % strength / mortality at 5 % strength: Cimex lectularius
Protocol: as §2, §3
as §4, with “bed bug (Cimex lectularius)” for “against German cockroach (Blattella germanica)”, “February 27 to Mar. 6,” for “Feb. 13-20,”, “bed bug (Cimex lectularius)” for “cockroach”, “0.5” for “1.5”

[4] = system: house fly (Musca domestica); assay: direct spray bioassay against house fly; details: for % Mortality: Hour 4; for mortality at 0.025 % strength / mortality at 0.1 % strength / mortality at 0.25 % strength / mortality at 1 % strength: Musca domestica
Protocol: as §2, §3
as §1, with “sabadilla N-octyl” for “sabadilla”, “MGK264” for “N-octyl bycloheptene dicarboximide (MGK264)”, “house fly (Musca domestica)” for “Yellow fever mosquito (Aedes aegypti)”, “Mar. 6-13,” for “Sep. 20-27,”, “house fly” for “mosquito”

SMILES: CCCCC(CC)CN1C(=O)C2C3C=CC(C3)C2C1=O (centres unmarked) [MGK264, N-octyl bicycloheptene dicarboximide]
- % Mortality ([1]; 0.05 % w/w): 0.0%
- % Mortality ([1]; 0.1 % w/w): 0.0%
- % Mortality ([1]; 0.5 % w/w): 0.0%
- mortality at 0.05 % strength ([1]; 24 h, 0.05 % w/w, Day 1): 0%
- mortality at 0.5 % strength ([1]; 24 h, 0.5 % w/w, Day 1): 0%
- mortality at 1 % strength ([1]; 24 h, Day 1): 10%
- mortality ([1]; 24 h, Day 1): 0%
- mortality at 0.5 % strength ([1]; 48 h, 0.5 % w/w, Day 2): 0%
- mortality at 1 % strength ([1]; 48 h, Day 2): 12.5%
- mortality at 0.05 % strength ([1]; 120 h, 0.05 % w/w, Day 5): 0%
- mortality at 0.5 % strength ([1]; 120 h, 0.5 % w/w, Day 5): 0%
- mortality at 1 % strength ([1]; 120 h, Day 5): 12.5%
- mortality at 0.5 % strength ([1]; 144 h, 0.5 % w/w, Day 6): 0%
- mortality at 1 % strength ([1]; 144 h, Day 6): 12.5%
- mortality at 0.05 % strength ([1]; 168 h, 0.05 % w/w, Day 7): 0%
- mortality at 0.5 % strength ([1]; 168 h, 0.5 % w/w, Day 7): 0%
- mortality at 1 % strength ([1]; 168 h, Day 7): 12.5%
- mortality ([1]; 168 h, Day 7): 2.5%
- mortality at 0.05 % strength ([1]; 0.05 % w/w, Hour 1): 0%
- mortality at 0.5 % strength ([1]; 0.5 % w/w, Hour 1): 0%
- mortality at 1 % strength ([1]; Hour 1): 7.5%
- mortality ([1]; Hour 1): 0%
- % Mortality ([2]; 0.05 % w/w): 0.0%
- % Mortality ([2]; 0.5 % w/w): 0.0%
- % Mortality ([2]; 5.0 % w/w): 0.0%
- mortality at 0.05 % strength ([2]; 24 h, 0.05 % w/w, Day 1): 0%
- mortality at 0.5 % strength ([2]; 24 h, 0.5 % w/w, Day 1): 0%
- mortality at 5 % strength ([2]; 24 h, 5.0 % w/w, Day 1): 0%
- mortality at 0.05 % strength ([2]; 48 h, 0.05 % w/w, Day 2): 0%
- mortality at 0.5 % strength ([2]; 48 h, 0.5 % w/w, Day 2): 0%
- mortality at 5 % strength ([2]; 48 h, 5.0 % w/w, Day 2): 0%
- mortality at 0.05 % strength ([2]; 120 h, 0.05 % w/w, Day 5): 2.6%
- mortality at 0.5 % strength ([2]; 120 h, 0.5 % w/w, Day 5): 0%
- mortality at 5 % strength ([2]; 120 h, 5.0 % w/w, Day 5): 0%
- mortality at 0.05 % strength ([2]; 144 h, 0.05 % w/w, Day 6): 2.6%
- mortality at 0.5 % strength ([2]; 144 h, 0.5 % w/w, Day 6): 0%
- mortality at 5 % strength ([2]; 144 h, 5.0 % w/w, Day 6): 0%
- mortality at 0.05 % strength ([2]; 168 h, 0.05 % w/w, Day 7): 2.6%
- mortality at 0.5 % strength ([2]; 168 h, 0.5 % w/w, Day 7): 0%
- mortality at 5 % strength ([2]; 168 h, 5.0 % w/w, Day 7): 0%
- mortality at 0.05 % strength ([2]; 0.05 % w/w, Hour 1): 0%
- mortality at 0.5 % strength ([2]; 0.5 % w/w, Hour 1): 0%
- mortality at 5 % strength ([2]; 5.0 % w/w, Hour 1): 0%
- % Mortality ([3]; 0.05 % w/w): 0.0%
- % Mortality ([3]; 0.5 % w/w): 0.0%
- % Mortality ([3]; 5.0 % w/w): 0.0%
- mortality at 0.05 % strength ([3]; 24 h, 0.05 % w/w, Day 1): 0%
- mortality at 0.5 % strength ([3]; 24 h, 0.5 % w/w, Day 1): 0%
- mortality at 5 % strength ([3]; 24 h, 5.0 % w/w, Day 1): 0%
- mortality at 0.05 % strength ([3]; 48 h, 0.05 % w/w, Day 2): 0%
- mortality at 0.5 % strength ([3]; 48 h, 0.5 % w/w, Day 2): 0%
- mortality at 5 % strength ([3]; 48 h, 5.0 % w/w, Day 2): 0%
- mortality at 0.05 % strength ([3]; 120 h, 0.05 % w/w, Day 5): 0%
- mortality at 0.5 % strength ([3]; 120 h, 0.5 % w/w, Day 5): 0%
- mortality at 5 % strength ([3]; 120 h, 5.0 % w/w, Day 5): 0%
- mortality at 0.05 % strength ([3]; 144 h, 0.05 % w/w, Day 6): 0%
- mortality at 0.5 % strength ([3]; 144 h, 0.5 % w/w, Day 6): 0%
- mortality at 5 % strength ([3]; 144 h, 5.0 % w/w, Day 6): 0%
- mortality at 0.05 % strength ([3]; 168 h, 0.05 % w/w, Day 7): 0%
- mortality at 0.5 % strength ([3]; 168 h, 0.5 % w/w, Day 7): 0%
- mortality at 5 % strength ([3]; 168 h, 5.0 % w/w, Day 7): 0%
- mortality at 0.05 % strength ([3]; 0.05 % w/w, Hour 1): 0%
- mortality at 0.5 % strength ([3]; 0.5 % w/w, Hour 1): 0%
- mortality at 5 % strength ([3]; 5.0 % w/w, Hour 1): 0%
- % Mortality ([4]; 0.025 % w/w): 0.0%
- % Mortality ([4]; 0.1 % w/w): 0.0%
- % Mortality ([4]; 0.25 % w/w): 0.0%
- % Mortality ([4]; 1.0 % w/w): 0.0%
- mortality at 0.025 % strength ([4]; 24 h, 0.025 % w/w, Day 1): 0%
- mortality at 0.1 % strength ([4]; 24 h, 0.1 % w/w, Day 1): 0%
- mortality at 0.25 % strength ([4]; 24 h, 0.25 % w/w, Day 1): 0%
- mortality at 1 % strength ([4]; 24 h, 1.0 % w/w, Day 1): 2.5%
- mortality at 0.025 % strength ([4]; 48 h, 0.025 % w/w, Day 2): 7.3%
- mortality at 0.1 % strength ([4]; 48 h, 0.1 % w/w, Day 2): 10%
- mortality at 0.25 % strength ([4]; 48 h, 0.25 % w/w, Day 2): 10%
- mortality at 1 % strength ([4]; 48 h, 1.0 % w/w, Day 2): 12.5%
- mortality at 0.025 % strength ([4]; 120 h, 0.025 % w/w, Day 5): 34.1%
- mortality at 0.1 % strength ([4]; 120 h, 0.1 % w/w, Day 5): 37.5%
- mortality at 0.25 % strength ([4]; 120 h, 0.25 % w/w, Day 5): 42.5%
- mortality at 1 % strength ([4]; 120 h, 1.0 % w/w, Day 5): 72.5%
- mortality at 0.025 % strength ([4]; 144 h, 0.025 % w/w, Day 6): 53.7%
- mortality at 0.1 % strength ([4]; 144 h, 0.1 % w/w, Day 6): 37.5%
- mortality at 0.25 % strength ([4]; 144 h, 0.25 % w/w, Day 6): 50%
- mortality at 1 % strength ([4]; 144 h, 1.0 % w/w, Day 6): 80%
- mortality at 0.025 % strength ([4]; 168 h, 0.025 % w/w, Day 7): 68.3%
- mortality at 0.1 % strength ([4]; 168 h, 0.1 % w/w, Day 7): 55%
- mortality at 0.25 % strength ([4]; 168 h, 0.25 % w/w, Day 7): 60%
- mortality at 1 % strength ([4]; 168 h, 1.0 % w/w, Day 7): 87.5%
- mortality at 0.025 % strength ([4]; 0.025 % w/w, Hour 1): 0%
- mortality at 0.1 % strength ([4]; 0.1 % w/w, Hour 1): 0%
- mortality at 0.25 % strength ([4]; 0.25 % w/w, Hour 1): 0%
- mortality at 1 % strength ([4]; 1.0 % w/w, Hour 1): 0%
